Results reported in patent publication US20240092825A1, “CERTAIN CHEMICAL ENTITIES, COMPOSITIONS, AND METHODS” (priority 2021, published 2024).
Where a name gives a salt, the structure may show the parent alone.

How the values were obtained:
[1] = Accelerated stability test of Crystalline Form I, storage at 40° C./75% RH (open); type: physicochemical; conditions: for Appearance / DSC / Purity / XRPD: 40° C./75% RH (open)
Experimental: (§1) X-ray powder diffraction (XRPD) patterns were obtained on a Bruker D8 Advance. A CuK source (=1.54179 angstrom) operating minimally at 40 kV and 40 mA scans each sample between 3 and 40 degrees 2-theta. The scanning rate is 10 degrees 2-theta per minute and the sample rotation speed is 15 revolutions per minute.
(§2) Differential scanning calorimetry analysis was carried out on a TA Instrument DSC unit (TA Q2000). Samples were heated in non-hermetic aluminum pans from ambient to 260° C. at 10° C./min.
(§3) Crystalline Form I was not changed after storage at 40° C./75% RH for 6 months, or storage at 25° C./60% RH for 36 months.

[2] = Long-term stability test of Crystalline Form I, storage at 25° C./60% RH (open); type: physicochemical; conditions: for Appearance / DSC / Purity / XRPD: 25° C./60% RH (open)
Experimental: as §1, §2, §3

With `C[C@]12CC[C@H](OC(=O)N3CCNCC3)C[C@H]1CC[C@@H]1[C@@H]2CC[C@]2(C)[C@@H](c3ccc(=O)oc3)CC[C@]12O` [Crystalline Form I, (3S,5R,8R,9S,10S,13R,14S,17R)-14-hydroxy-10,13-dimethyl-17-(2-oxo-2H-pyran-5-yl)hexadecahydro-1H-cyclopenta[a]phenanthren-3-yl piperazine-1-carboxylate maleate] the Appearance ([1]; 0 month) was “White powder”, the DSC ([1]; 0 month) was 233.84° ° C and the Purity ([1]; 0 month) was 99.86%. For the same molecule, the XRPD ([1]; 0 month) was “Form I”, the Appearance ([1]; 6 months) was “White powder” and the DSC ([1]; 6 months) was 234.28° ° C. The Purity ([1]; 6 months) was 99.91%, the XRPD ([1]; 6 months) was “Form I” and the “Change of crystalline form after storage” value ([1]; storage at 40° C./75% RH for 6 months) was “not changed”. For the same molecule, the Appearance ([2]; 0 month) was “White powder”, the DSC ([2]; 0 month) was 233.84° ° C and the Purity ([2]; 0 month) was 99.86%. For the same molecule, the XRPD ([2]; 0 month) was “Form I”, the Appearance ([2]; 12 months) was “White powder” and the DSC ([2]; 12 months) was 234.41° ° C. For the same molecule, the Purity ([2]; 12 months) was 99.87%, the XRPD ([2]; 12 months) was “Form I” and the Appearance ([2]; 24 months) was “White powder”. The DSC ([2]; 24 months) was 232.9° ° C, the Purity ([2]; 24 months) was 99.91% and the XRPD ([2]; 24 months) was “Form I”. The Appearance ([2]; 36 months) was “White powder”, the DSC ([2]; 36 months) was 233.6° ° C and the Purity ([2]; 36 months) was 100.00%. The XRPD ([2]; 36 months) was “Form I” and the “Change of crystalline form after storage” value ([2]; storage at 25° C./60% RH for 36 months) was “not changed”.
